Experimental data: patent publication US20130231472A1, “USE OF MOLECULAR MARKERS FOR THE PRECLINICAL PROFILING OF INHIBITORS OF ENZYMES HAVING HISTONE DEACETYLASE ACTIVITY” (priority 2002, published 2013)

Key:
Ubc8 = Ubc8 expression in F9 cells (Northern blot, real time PCR); assay type: cell-based, murine; conditions: 1 mM VPA, FIG. 11
Description: FIG. 11 (A) F9 cells were treated for indicated times with 1 mM VPA and abundance of Ubc8 mRNA was determined by Northern blot analysis from 5 μg polyA^+ mRNA with a probe drived from the 3′-UTR of the cDNA. GAPDH mRNA was determined as reference. Phosphorimager analysis was performed for quantitative evaluation and relative values normalized for GAPDH are presented below the graph. One of two experiments with similar results is shown. (B) Ubc8 mRNA was also determined by real time PCR assuming an 1.5-fold amplification per cycle. The amplicon was part of the coding sequence of the Ubc8 mRNA. F9 cells were treated for 17 h with 1 mM VPA (V) or 100 nM TSA (T). Results were normalized for GAPDH expression. Average values ± range of duplicate determinations are shown.

HDAC-3 = HDAC-3 protein levels (Westernblot, reference); assay type: cell-based; conditions: 1 mM VPA; FIG. 6A; in some experiments a transient induction
Description: FIG. 6: (A) F9 teratocarcinoma or HEK293T embryonic kidney cells were exposed for indicated times to 1 mM VPA. Protein levels of HDAC-2 and HDACs 1 or 3 for reference (HDAC8; N-CoR and Sin3 as data not shown) were determined by Westernblot analysis. […] (C) The effect of other HDAC inhibitors on the amount of HDAC-2 protein was determined by using TSA (100 nM) in a time course analysis in F9 cells (left panel). The HDAC inhibitors TSA (100 nM), trapoxin (TPX, 10 nM), butyrate (1.5 mM) or MS275 (5 μM) were tested at a single time of exposure in HEK293T cells (right panel).

HDAC-2 [1] = test: HDAC-2 protein levels in NIH3T3 cells; assay type: cell-based, mouse
TRAIL = TRAIL expression in Calu-3 cells (quantitative PCR); assay type: cell-based, human; conditions: VPA 1 mM, FIG. 4B
Description: FIG. 4: (A) Secondary acute promyelocytic leukemias were induced in mice as described above. Leukemic mice or healthy mice (Ctrl) were then treated with placebo (lanes 1, 3), VPA (400 mg/kg every 12 hours), all-trans retinoic acid (a 21-day-release pellet containing 5 mg RA or placebo: lanes 8-9), and VPA plus retinoic acid (lanes 10-11). Mice were sacrificed 18 hours (lanes 4-5), or 36 hours after beginning of treatment (lanes 3, 6-7, 10-11): total RNAs were collected from the spleens (with a >75% invasion of leukemic blasts as assessed by Giemsa staining) and analyzed by RNAse protection assay to check for expression of TRAIL. Faf and GAPDH were used as controls, not affected by these treatments. (B) Calu-3 cells (a human, non-small cell lung cancer derived cell line) were treated with VPA (1 mM) for the indicated times. RNA was extracted and analyzed by quantitative PCR (Perkin-Elmer), using primers specific for TRAIL. GAPDH was used to normalize.

HDAC-2 [2] = test: HDAC-2 pulse labeling and pulse-chase analysis in HEK293T cells; assay type: cell-based, human
Description: FIG. 8: Synthesis and degradation rate of HDAC-2 were analyzed by pulse metabolic labeling with ^35S-methionine and pulse-chase analyses. ^35S-labelled HDAC-2 was detected by HDAC-2 specific immune precipitation followed by SDS-PAGE separation and autoradiography. (A) Pulse labeling for 1 h was performed in F9 and HEK293T cells which had been left untreated or were pretreated with 1 mM VPA for 24 h. (B) For pulse chase analysis cells were left untreated or pretreated for 24 h with 1 mM VPA and labeled with ^35S-methionine for an additional hour in the absence or presence of VPA. After removal of ^35S-methionine and addition of non-labeled methionine the elimination of radiolabeled HDAC-2 was followed over a period of 6 h. A pulse chase analysis was also performed in HEK293T cells without VPA pretreatment and addition of VPA (indicated by the (+) row) only at the time when the chase period was started. From HEK293T cell extracts also HDAC-3 was precipitated for reference.

HDAC-2 mRNA [3] = test: HDAC-2 mRNA levels in F9 cells (Northern blot); assay type: cell-based, murine; conditions: 1 mM VPA, FIG. 7
Description: (§1) FIG. 7: F9 cells or HEK 293T cells were treated for indicated times with 1 mM VPA and the levels of HDAC-2 mRNA were determined by Northern blot analysis from 5 μg polyA^+ RNA.

HDAC-2 mRNA [4] = test: HDAC-2 mRNA levels in HEK293T cells (Northern blot); assay type: cell-based, human; conditions: 1 mM VPA, FIG. 7
Description: as §1

RLIM = RLIM protein levels in HEK293T cells (Westernblot); assay type: cell-based, human; conditions: 24 hours, VPA 0.5, 1.5 or 5 mM, TSA 30, 100 or 300 nM, FIG. 12
Description: FIG. 12 (A) RLIM protein levels were determined by Westernblot analysis after treatment of HEK293T cells for 24 hours with the HDAC inhibitors VPA (0.5, 1.5, or 5 mM), TSA (30, 100 or 300 nM) or a combination of VPA (1.5 mM) and TSA (100 nM). Actin protein levels are shown as a control for equal loading. (B) RLIM protein levels were determined by Westernblot analysis after treatment of HEK293T cells for 24 hours with the HDAC inhibitor TSA (100 nM), the proteasome inhibitor ALLN (2.5 μM) or a combination of both. Actin protein levels are shown as a control for equal loading.

HDAC-2 [5] = test: Ubiquitinated proteins in anti HDAC-2 immune precipitates (Westernblot against ubiquitin); assay type: cell-based; conditions: FIG. 10A
Text: FIG. 10: (A) The total amount of high molecular weight poly-ubiquitinated protein was not altered by VPA treatment of cells (left two lanes). The presence of ubiquitinated proteins in anti HDAC-2 immune precipitates is shown in the right part of the panel. […] Ubiquitinated proteins in the precipitates were detected by Western blot analysis. For lane N a non-immune serum was used instead of the anti HDAC-2 antibody. (B) The presence of mono- and/or oligo-ubiquitinated HDAC-2 upon VPA treatment of HEK293T cells was determined by ectopic expression of His6-tagged ubiquitin followed by VPA-treatment for 36 h as indicated. The proteasome inhibitor MG-132 was added 4 h prior to analysis to enhance the accumulation of ubiquitinated proteins. Electrophoretic mobility and unaltered presence of non-ubiquitinated HDAC-2 were determined by Westernblot analysis of whole cell extracts (left panel). […] Anti-HDAC-2 immuno-reactive bands with the expected mobility of mono- or poly-ubiquitinated HDAC-2 are indicated by a bracket.

With CCCC(CCC)C(=O)O [VPA, Valproic acid] the “expression of the gene encoding Ubc8” value (Ubc8) was “inducible by VPA”, the HDAC-3 protein levels (HDAC-3) was “not reduced” and the HDAC-2 protein levels (HDAC-2 [1]) was “reduced”. For the same molecule, the “TRAIL expression (quantitative PCR, normalized to GAPDH)” value (TRAIL) was “strongly induced”, the “HDAC-2 synthesis rate (35S-methionine pulse labeling)” value (HDAC-2 [2]; 1 mM VPA pretreatment 24 h, FIG. 8A) was “No substantial difference in HDAC-2 synthesis rate” and the “half-life of HDAC-2 (pulse-chase)” value (HDAC-2 [2]; 1 mM VPA pretreatment 24 h, FIG. 8B) was “substantially decreased”. For the same molecule, the “HDAC-2 protein degradation rate” value (HDAC-2 [2]; VPA added only at the time of chase, FIG. 8B) was “no effect”, the “HDAC-2 mRNA levels” value (HDAC-2 mRNA [3]) was “no response of HDAC-2 mRNA levels” and the “HDAC-2 mRNA levels” value (HDAC-2 mRNA [4]) was “no response of HDAC-2 mRNA levels”. For the same molecule, the “RLIM protein levels / degradation” value (RLIM) was “without changing expression of the E3 ubiquitin ligase, RLIM”, the “amount of ubiquitinated protein precipitated with antibody against HDAC-2” value (HDAC-2 [5]; VPA 1.5 mM, 24 h, ALLN 5 μM) was “increase the amount of this anti-ubiquitin reactive protein” and the “overall amount of cellular ubiquitinated proteins” value (HDAC-2 [5]; VPA treatment) was “moderately reduced”.
